In experiment [1] the target is Neuropeptide Y receptor type 2 (Homo sapiens) (UniProt P49146). Put plainly: hNPY2 Cerep panel.
Experiment [2] concerns the target B2 bradykinin receptor (Homo sapiens) (UniProt P30411). The experiment is described as follows: hBK2 Cerep panel.
In experiment [3] the target is 5-hydroxytryptamine receptor 7 (Homo sapiens) (UniProt P34969). Put plainly: h5HT7 Cerep panel.
In experiment [4] the target is 5-hydroxytryptamine receptor 2A (Homo sapiens) (UniProt P28223). The note with it: Compound concentration 10.0 uM.
Experiment [5] addresses 5-hydroxytryptamine receptor 2B (Homo sapiens) (UniProt P41595). The note with it: Compound concentration 10.0 uM.
Experiment [6] addresses 5-hydroxytryptamine receptor 2C (Homo sapiens) (UniProt P28335). The note with it: Compound concentration 10.0 uM.
The target in experiment [7] is T1, 5-hydroxytryptamine receptor 3A (Homo sapiens) (UniProt P46098).
T1 sequence (whole entry): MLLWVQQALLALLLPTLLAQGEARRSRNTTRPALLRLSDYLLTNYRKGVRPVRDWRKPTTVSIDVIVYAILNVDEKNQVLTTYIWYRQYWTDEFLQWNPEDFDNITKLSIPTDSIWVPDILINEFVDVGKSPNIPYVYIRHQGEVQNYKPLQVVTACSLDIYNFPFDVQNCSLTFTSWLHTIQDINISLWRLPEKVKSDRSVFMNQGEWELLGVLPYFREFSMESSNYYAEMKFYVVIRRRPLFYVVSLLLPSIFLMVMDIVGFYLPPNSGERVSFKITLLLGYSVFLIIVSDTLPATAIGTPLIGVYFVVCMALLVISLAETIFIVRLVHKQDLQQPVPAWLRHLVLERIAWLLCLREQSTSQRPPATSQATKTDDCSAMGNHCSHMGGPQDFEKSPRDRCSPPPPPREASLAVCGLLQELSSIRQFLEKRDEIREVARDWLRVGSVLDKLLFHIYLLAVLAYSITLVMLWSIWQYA
To be noted: Compound concentration 10.0 uM.

Experiment [8] deals with 5-hydroxytryptamine receptor 6 (Homo sapiens) (UniProt P50406). The note with it: Compound concentration 10.0 uM.
5-hydroxytryptamine receptor 6 (Homo sapiens), sequence (P50406 whole entry): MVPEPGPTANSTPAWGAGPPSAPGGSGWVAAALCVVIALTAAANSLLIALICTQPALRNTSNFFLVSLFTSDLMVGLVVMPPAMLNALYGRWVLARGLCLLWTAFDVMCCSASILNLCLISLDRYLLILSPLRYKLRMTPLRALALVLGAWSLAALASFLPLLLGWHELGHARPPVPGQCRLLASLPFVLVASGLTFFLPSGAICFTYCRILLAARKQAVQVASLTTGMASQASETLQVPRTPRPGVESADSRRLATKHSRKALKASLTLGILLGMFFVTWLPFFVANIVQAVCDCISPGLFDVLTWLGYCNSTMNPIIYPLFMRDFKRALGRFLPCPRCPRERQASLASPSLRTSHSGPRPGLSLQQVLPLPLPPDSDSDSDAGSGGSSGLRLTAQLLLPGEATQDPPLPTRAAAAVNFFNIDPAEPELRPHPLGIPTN
Experiment [9] has as its target 5-hydroxytryptamine receptor 7 (Homo sapiens) (UniProt P34969). To be noted: Compound concentration 10.0 uM.
Experiment [10] addresses D(2) dopamine receptor (Homo sapiens) (UniProt P14416). The note with it: Compound concentration 10.0 uM.
The target of experiment [11] is D(4) dopamine receptor (Homo sapiens) (UniProt P21917). To be noted: Compound concentration 10.0 uM.
D(4) dopamine receptor (Homo sapiens), sequence (P21917 whole entry): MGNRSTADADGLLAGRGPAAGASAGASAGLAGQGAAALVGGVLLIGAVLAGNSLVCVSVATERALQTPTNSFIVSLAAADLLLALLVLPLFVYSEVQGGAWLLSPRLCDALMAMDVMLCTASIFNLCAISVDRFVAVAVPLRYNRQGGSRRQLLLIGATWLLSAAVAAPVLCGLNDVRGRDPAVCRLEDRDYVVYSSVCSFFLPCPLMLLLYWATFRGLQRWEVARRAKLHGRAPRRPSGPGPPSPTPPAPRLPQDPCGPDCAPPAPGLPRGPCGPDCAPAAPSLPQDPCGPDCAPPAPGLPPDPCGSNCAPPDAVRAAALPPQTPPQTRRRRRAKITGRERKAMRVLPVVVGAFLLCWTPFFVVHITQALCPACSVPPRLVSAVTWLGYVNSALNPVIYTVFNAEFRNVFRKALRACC
Experiment [12] has as its target D(1B) dopamine receptor (Homo sapiens) (UniProt P21918). To be noted: Compound concentration 10.0 uM.
In experiment [13] the target is Mu-type opioid receptor (Homo sapiens) (UniProt P35372). The note with it: Compound concentration 10.0 uM.
Mu-type opioid receptor (Homo sapiens), sequence (P35372 whole entry): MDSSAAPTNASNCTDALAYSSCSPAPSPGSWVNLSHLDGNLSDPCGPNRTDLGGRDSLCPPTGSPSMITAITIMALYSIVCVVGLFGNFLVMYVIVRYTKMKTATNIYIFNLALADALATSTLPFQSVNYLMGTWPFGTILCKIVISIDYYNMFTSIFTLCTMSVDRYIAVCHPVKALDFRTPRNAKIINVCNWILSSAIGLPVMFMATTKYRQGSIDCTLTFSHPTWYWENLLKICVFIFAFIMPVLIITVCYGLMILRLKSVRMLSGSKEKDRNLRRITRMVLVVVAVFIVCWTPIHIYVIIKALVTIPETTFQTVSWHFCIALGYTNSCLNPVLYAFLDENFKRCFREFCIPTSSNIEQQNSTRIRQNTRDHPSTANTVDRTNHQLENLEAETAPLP
The target in experiment [14] is Delta-type opioid receptor (Homo sapiens) (UniProt P41143). The note with it: Compound concentration 10.0 uM.
Delta-type opioid receptor (Homo sapiens), sequence (P41143 whole entry): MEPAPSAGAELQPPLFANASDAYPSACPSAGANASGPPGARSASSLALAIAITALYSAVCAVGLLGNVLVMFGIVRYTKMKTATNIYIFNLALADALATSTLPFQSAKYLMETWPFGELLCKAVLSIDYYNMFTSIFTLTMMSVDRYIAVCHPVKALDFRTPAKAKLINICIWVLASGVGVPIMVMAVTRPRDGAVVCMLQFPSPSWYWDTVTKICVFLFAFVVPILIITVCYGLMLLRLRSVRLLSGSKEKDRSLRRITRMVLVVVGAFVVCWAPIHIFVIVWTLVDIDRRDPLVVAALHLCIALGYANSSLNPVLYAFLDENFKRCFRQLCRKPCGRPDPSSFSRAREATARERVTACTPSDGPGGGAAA
In experiment [15] the target is T2, GABA-A receptor; anion channel (Rattus norvegicus) (UniProt O09028+P15431+P18506+P18508+P19969+P20236+P23574+P23576+P28471+P28473+P30191+P62813+P63079+P63138+Q91ZM7+Q9ES14). To be noted: Compound concentration 10.0 uM.
The target of experiment [16] is Histamine H3 receptor (Homo sapiens) (UniProt Q9Y5N1). The note with it: Compound concentration 10.0 uM.
Histamine H3 receptor (Homo sapiens), sequence (Q9Y5N1 whole entry): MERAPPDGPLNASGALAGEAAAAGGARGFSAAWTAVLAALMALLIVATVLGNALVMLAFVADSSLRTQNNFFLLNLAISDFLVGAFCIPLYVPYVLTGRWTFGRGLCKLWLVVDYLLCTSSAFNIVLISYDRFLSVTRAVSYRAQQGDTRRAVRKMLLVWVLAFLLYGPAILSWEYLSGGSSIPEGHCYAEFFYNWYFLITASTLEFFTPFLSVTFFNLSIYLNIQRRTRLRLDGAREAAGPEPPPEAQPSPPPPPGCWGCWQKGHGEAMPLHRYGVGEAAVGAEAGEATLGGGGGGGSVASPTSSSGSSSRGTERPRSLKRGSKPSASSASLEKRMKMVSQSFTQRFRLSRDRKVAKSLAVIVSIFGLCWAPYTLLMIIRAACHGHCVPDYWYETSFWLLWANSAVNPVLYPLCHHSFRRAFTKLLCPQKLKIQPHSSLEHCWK
The target of experiment [17] is T3, Alpha-1B adrenergic receptor (Homo sapiens) (UniProt P35368).
T3 sequence (whole entry): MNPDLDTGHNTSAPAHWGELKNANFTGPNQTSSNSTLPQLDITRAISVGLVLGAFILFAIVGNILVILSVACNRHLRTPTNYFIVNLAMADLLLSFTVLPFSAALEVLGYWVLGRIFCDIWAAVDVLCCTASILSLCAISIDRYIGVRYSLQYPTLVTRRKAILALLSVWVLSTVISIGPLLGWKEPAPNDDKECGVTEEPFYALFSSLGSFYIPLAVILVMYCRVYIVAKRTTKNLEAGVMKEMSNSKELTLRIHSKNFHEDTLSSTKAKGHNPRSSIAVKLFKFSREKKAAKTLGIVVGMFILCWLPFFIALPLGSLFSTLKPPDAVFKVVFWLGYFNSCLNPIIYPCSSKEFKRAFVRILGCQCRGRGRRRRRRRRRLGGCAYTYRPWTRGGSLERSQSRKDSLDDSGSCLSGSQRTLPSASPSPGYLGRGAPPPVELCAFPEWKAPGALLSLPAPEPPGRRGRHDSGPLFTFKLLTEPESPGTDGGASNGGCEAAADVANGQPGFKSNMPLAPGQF
To be noted: Compound concentration 10.0 uM.

The target of experiment [18] is Alpha-2A adrenergic receptor (Homo sapiens) (UniProt P08913). To be noted: Compound concentration 10.0 uM.
Alpha-2A adrenergic receptor (Homo sapiens), sequence (P08913 whole entry): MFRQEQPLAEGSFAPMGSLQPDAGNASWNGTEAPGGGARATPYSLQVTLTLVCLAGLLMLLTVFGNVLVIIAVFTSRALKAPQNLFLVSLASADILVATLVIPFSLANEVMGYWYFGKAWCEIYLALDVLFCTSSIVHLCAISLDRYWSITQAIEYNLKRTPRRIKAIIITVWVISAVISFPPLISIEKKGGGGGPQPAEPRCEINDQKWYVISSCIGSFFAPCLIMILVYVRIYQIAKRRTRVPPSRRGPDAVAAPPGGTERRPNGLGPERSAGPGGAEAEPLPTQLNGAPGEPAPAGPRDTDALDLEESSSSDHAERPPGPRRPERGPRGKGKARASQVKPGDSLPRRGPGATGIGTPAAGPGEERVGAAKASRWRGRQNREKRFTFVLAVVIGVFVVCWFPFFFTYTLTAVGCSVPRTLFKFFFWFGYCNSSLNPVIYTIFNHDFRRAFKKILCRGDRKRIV
Experiment [19] deals with Alpha-2B adrenergic receptor (Homo sapiens) (UniProt P18089). The note with it: Compound concentration 10.0 uM.
Alpha-2B adrenergic receptor (Homo sapiens), sequence (P18089 whole entry): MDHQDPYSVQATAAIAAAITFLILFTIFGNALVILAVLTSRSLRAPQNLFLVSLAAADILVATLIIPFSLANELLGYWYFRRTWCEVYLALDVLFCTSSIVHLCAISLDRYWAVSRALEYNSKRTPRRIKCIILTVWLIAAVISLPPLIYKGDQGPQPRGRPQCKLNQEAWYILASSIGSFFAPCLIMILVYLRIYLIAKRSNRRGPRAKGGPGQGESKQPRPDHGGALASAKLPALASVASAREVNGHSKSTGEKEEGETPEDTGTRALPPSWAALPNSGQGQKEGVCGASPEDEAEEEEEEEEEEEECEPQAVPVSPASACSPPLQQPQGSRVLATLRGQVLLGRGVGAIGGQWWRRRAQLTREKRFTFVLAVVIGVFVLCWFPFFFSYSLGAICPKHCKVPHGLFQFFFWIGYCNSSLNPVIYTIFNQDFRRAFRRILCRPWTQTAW
Experiment [20] deals with Beta-1 adrenergic receptor (Homo sapiens) (UniProt P08588). The note with it: Compound concentration 10.0 uM.
The target of experiment [21] is Beta-2 adrenergic receptor (Homo sapiens) (UniProt P07550). To be noted: Compound concentration 10.0 uM.
Beta-2 adrenergic receptor (Homo sapiens), sequence (P07550 whole entry, looked up): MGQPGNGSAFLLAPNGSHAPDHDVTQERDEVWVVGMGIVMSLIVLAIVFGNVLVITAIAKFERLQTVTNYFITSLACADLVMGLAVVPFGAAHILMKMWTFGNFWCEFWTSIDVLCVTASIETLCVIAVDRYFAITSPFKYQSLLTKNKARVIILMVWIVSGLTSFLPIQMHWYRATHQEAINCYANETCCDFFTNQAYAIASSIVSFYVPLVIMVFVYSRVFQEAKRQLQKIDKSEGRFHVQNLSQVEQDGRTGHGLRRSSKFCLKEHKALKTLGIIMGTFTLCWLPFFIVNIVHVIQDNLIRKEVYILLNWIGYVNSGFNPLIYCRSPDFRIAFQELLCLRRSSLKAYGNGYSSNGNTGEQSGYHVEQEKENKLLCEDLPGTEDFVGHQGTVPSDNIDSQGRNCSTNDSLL
Experiment [22] has as its target T4, Muscarinic acetylcholine receptor M1 (Homo sapiens) (UniProt P11229).
T4 sequence (whole entry): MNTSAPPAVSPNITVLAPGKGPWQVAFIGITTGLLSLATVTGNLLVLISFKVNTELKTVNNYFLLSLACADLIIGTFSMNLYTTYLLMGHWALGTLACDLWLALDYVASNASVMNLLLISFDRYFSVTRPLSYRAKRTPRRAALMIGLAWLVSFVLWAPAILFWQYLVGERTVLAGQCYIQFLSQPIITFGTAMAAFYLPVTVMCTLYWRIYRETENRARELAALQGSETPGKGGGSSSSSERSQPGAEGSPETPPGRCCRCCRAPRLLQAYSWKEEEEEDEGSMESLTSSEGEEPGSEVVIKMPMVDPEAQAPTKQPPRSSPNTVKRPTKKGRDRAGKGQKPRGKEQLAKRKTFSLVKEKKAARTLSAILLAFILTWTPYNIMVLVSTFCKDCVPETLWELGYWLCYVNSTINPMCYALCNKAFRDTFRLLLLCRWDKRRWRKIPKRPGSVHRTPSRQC
The note with it: Compound concentration 10.0 uM.

The target of experiment [23] is Muscarinic acetylcholine receptor M3 (Homo sapiens) (UniProt P20309). To be noted: Compound concentration 10.0 uM.
Muscarinic acetylcholine receptor M3 (Homo sapiens), sequence (P20309 whole entry, looked up): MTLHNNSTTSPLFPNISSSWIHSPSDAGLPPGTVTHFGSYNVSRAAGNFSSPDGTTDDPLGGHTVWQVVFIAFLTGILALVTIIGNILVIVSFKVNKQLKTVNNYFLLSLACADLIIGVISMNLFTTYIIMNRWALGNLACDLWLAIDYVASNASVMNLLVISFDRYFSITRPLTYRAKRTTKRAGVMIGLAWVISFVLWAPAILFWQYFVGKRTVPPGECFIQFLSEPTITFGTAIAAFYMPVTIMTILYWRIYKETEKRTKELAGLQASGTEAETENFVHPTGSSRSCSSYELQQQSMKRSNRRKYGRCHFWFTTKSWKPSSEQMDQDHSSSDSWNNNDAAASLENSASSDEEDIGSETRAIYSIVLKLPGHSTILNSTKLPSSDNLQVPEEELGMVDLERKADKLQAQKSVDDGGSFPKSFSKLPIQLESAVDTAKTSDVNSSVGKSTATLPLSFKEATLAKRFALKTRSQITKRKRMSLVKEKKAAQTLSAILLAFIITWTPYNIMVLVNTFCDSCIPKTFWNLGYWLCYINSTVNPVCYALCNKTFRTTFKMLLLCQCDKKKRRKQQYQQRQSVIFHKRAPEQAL
Experiment [24] concerns the target T2, GABA-A receptor; anion channel (Rattus norvegicus). The note with it: Compound concentration 10.0 uM. This is another data set of the same source.
Another experiment is filed under the species Rattus norvegicus. To be noted: Compound concentration 10.0 uM.

Usually inhibition stands for the change of the read-out against control, counted positive when it falls.

5-hydroxytryptamine receptor 7 (Homo sapiens), sequence (P34969 whole entry): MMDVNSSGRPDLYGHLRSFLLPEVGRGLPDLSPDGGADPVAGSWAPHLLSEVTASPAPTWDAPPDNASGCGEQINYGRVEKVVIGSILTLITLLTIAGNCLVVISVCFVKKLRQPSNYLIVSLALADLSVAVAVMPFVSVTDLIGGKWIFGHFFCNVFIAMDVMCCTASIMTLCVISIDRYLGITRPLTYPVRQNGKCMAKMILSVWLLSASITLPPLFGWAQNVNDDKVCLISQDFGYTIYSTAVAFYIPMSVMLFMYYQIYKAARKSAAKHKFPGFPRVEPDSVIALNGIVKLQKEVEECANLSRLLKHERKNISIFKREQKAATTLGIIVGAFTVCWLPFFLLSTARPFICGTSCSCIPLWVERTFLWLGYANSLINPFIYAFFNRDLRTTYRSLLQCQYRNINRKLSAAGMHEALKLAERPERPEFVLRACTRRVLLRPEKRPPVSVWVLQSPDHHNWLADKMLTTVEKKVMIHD
5-hydroxytryptamine receptor 2B (Homo sapiens), sequence (P41595 whole entry): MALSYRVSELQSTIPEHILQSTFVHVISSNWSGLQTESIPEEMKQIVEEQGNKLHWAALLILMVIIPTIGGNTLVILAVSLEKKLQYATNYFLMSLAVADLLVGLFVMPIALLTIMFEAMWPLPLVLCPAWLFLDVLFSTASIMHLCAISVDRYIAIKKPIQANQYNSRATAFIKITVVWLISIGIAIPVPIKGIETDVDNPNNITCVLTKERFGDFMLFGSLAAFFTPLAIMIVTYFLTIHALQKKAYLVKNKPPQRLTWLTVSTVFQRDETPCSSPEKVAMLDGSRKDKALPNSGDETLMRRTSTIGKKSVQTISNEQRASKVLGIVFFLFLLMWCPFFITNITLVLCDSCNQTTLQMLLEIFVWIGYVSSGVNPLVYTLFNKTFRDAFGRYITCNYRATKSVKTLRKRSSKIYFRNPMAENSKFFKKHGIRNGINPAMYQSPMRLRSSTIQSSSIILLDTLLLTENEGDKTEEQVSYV

Regarding `CC(=O)Nc1ncc(CN2CCC[C@H](Cc3cc(C)nc(C)c3)C2)s1` [JNJ-65355394], the effect in experiment [1] is -2.7%; in experiment [2], 10.8%; in [3], -1.65%. The inhibition in experiment [4] is -2.94%; in [5], 6.7%; in experiment [6], 15.2%; in experiment [7], 6.87%; in experiment [8], 14.3%; in experiment [9] it was 9.6%. Moreover, the inhibition in experiment [10] was 0.63%; in experiment [11], 3.53%; in experiment [12] it was 7.69%; in experiment [13], 12.8%; in [14], 11.8%; in experiment [15], -8.39%. Besides, the inhibition was 10.8% in experiment [16]; -5.2% in experiment [17]; 8.68% in experiment [18]; 44.8% in [19]; 3.29% in [20]; -5.16% in [21]. The inhibition in experiment [22] was 6.18%; in experiment [23] it was 8.4%; in [24], 8.07%; in the experiment filed under Rattus norvegicus, 5.69%.
As to `CC(=O)Nc1nc(CN2CCC[C@H](Cc3cc(C)nc(C)c3)C2)cs1` [JNJ-73924149], the inhibition in [4] was 6.45%; in [5], 17.9%; in [6] it was 16.3%; in experiment [7], 20.7%; in experiment [8], 25.6%; in experiment [9] it was 2.58%. In addition, the inhibition was 8.04% in experiment [10]; 6.82% in experiment [11]; 27.3% in [13]; 8.67% in [14]; 43.6% in experiment [15]; 27.1% in experiment [16]. The inhibition in experiment [17] is -3.57%; in experiment [18] it was 31.7%; in [19], 59.1%; in [20], 4.41%; in [21], -8.1%; in experiment [22] it was 25.4%. For the same compound, the inhibition in [23] is -9.98%; in experiment [24], 43.5%; in the experiment listed under Rattus norvegicus it was 11.2%.

Source of the values: ChEMBL document CHEMBL4800731, “Data for DCP probe JNJ-65355394” (2021).
